Experiments:
[1] = tested on: SMN2 minigene (full length SMN2 minigene mRNA containing SMN2 exon 7); assay: SMN2 minigene mRNA splicing RT-qPCR assay in cultured cells; format: cell-based, human; settings: Homo sapiens, HEK293-H; HEK293H cells stably transfected with SMN2-A minigene; 24 hours; 7-point concentration curve; 1.5-fold relative to vehicle-treated cells; read-out: EC1.5x for production of full length SMN2 mRNA
Outline: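 HEK293H cells stably carrying the SMN2-A minigene treated 24 h at 37° C with compound (DMSO, 200× stock), then lysed. Multiplex RT-qPCR (SMN primers 0.4 μM final; 40 cycles) measures full-length exon 7-containing minigene mRNA, normalized to GAPDH and to vehicle; EC1.5x derived and binned by stars.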

Smn protein = Smn protein assay in cultured cells (SMN HTRF); format: cell-based, human; settings: 48 hours; for EC1.5x (concentration giving 1.5-fold Smn protein increase): SMA Type 1 patient fibroblast cells (GM03813), 7-point concentration curve, SMN HTRF, concentration producing 1.5 times Smn protein vs DMSO vehicle control, read-out: EC1.5x for Smn protein expression; for maximum fold (Fold) increase of Smn protein: SMA patient fibroblast cells, 7-point concentration data, fold increase relative to vehicle control (SMN HTRF)
Outline: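 Lysates in RIPA with protease inhibitors are incubated overnight at room temperature with HTRF anti-SMN antibodies. EC1.5x is derived from fold increase in ΔF over vehicle.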

melting point [°C] | SMILES | EC (1.5-fold) [1] [µM] | EC1.5x (concentration giving 1.5-fold Smn protein increase) (Smn protein) [nM] | maximum fold (Fold) increase of Smn protein (Smn protein)
235 to 237 | CN1CCN(c2ccc3cc(-c4cc5ccccn5n4)c(=O)oc3c2)CC1 [Compound 188, 7-(4-methylpiperazin-1-yl)-3-(pyrazolo[1,5-a]pyridin-2-yl)-2H-chromen-2-one] | 0.3 to 1 | 3000 to 10000 | *** (fold increase between >1.35 and ≤1.5)
203 to 208 | CCc1cc(C)cn2cc(-c3cc4ccc(N5C[C@@H](C)N[C@@H](C)C5)cc4oc3=O)nc12 [Compound 341, 7-[(3R,5S)-3,5-dimethylpiperazin-1-yl]-3-(8-ethyl-6-methylimidazo[1,2-a]pyridin-2-yl)-2H-chromen-2-one] | 0.3 to 1 | – | * (maximum fold increase of ≤1.2)
215 to 217 | CCN1CCN(c2ccc3cc(-c4cn5cc(C)nc(C)c5n4)c(=O)oc3c2)CC1 [Compound 621, 3-(6,8-dimethylimidazo[1,2-a]pyrazin-2-yl)-7-(4-ethylpiperazin-1-yl)-2H-chromen-2-one] | < 0.1 | < 300 | ***** (fold increase >1.65)
241 to 243 | COc1ccc(-c2cc3ccc(N4CCNCC4)cc3oc2=O)cc1F [Compound 544, 3-(3-fluoro-4-methoxyphenyl)-7-(piperazin-1-yl)-2H-chromen-2-one] | 0.1 to 0.3 | – | ** (fold increase between >1.2 and ≤1.35)
158 to 160 | Cc1ccc(-c2cc3ccc(N4CCN(C)CC4)cc3oc2=O)cn1 [Compound 164, 7-(4-methylpiperazin-1-yl)-3-(6-methylpyridin-3-yl)-2H-chromen-2-one] | 1 to 3 | – | * (maximum fold increase of ≤1.2)
224 to 230 | Cc1ccn2cc(-c3cc4ccc(NC5CCN(C)CC5)cc4oc3=O)nc2c1 [Compound 474, 3-(7-methylimidazo[1,2-a]pyridin-2-yl)-7-[(1-methylpiperidin-4-yl)amino]-2H-chromen-2-one] | 1 to 3 | – | * (maximum fold increase of ≤1.2)
243 to 246 | CC(C)N1CCN(c2ccc3cc(-c4cc5ccccn5n4)c(=O)oc3c2)CC1 [Compound 196, 7-[4-(propan-2-yl)piperazin-1-yl]-3-(pyrazolo[1,5-a]pyridin-2-yl)-2H-chromen-2-one] | 1 to 3 | – | * (maximum fold increase of ≤1.2)
268 to 272 | Cc1nc(Cl)cn2cc(-c3cc4ccc(N5CCN6CCC[C@@H]6C5)cc4oc3=O)nc12 [Compound 710, 3-(6-chloro-8-methylimidazo[1,2-a]pyrazin-2-yl)-7-[(8aR)-hexahydropyrrolo[1,2-a]pyrazin-2(1H)-yl]-2H-chromen-2-one] | < 0.1 | – | ** (fold increase between >1.2 and ≤1.35)
223 to 233 | Cc1cn2cc(-c3cc4ccc(N[C@H]5CCN(C)C5)cc4oc3=O)nc2c(C)n1 [Compound 657, 3-(6,8-dimethylimidazo[1,2-a]pyrazin-2-yl)-7-{[(3S)-1-methylpyrrolidin-3-yl]amino}-2H-chromen-2-one] | < 0.1 | < 300 | **** (fold increase between >1.5 and ≤1.65)
225 to 228 | Cc1nn2cc(-c3cc4ccc(N5C[C@@H](C)N[C@@H](C)C5)cc4oc3=O)nc2s1 [Compound 443, 7-[(3R,5S)-3,5-dimethylpiperazin-1-yl]-3-(2-methylimidazo[2,1-b][1,3,4]thiadiazol-6-yl)-2H-chromen-2-one] | < 0.1 | 300 to 1000 | **** (fold increase between >1.5 and ≤1.65)
185 to 187 | CN1CCN(c2ccc3cc(-c4cn(C)c5ccccc45)c(=O)oc3c2)CC1 [Compound 259, 3-(1-methyl-1H-indol-3-yl)-7-(4-methylpiperazin-1-yl)-2H-chromen-2-one] | 1 to 3 | – | * (maximum fold increase of ≤1.2)
135 to 138 | CCN1C[C@@H]2C[C@H]1CN2c1ccc2cc(-c3cn4cc(Cl)nc(C)c4n3)c(=O)oc2c1 [Compound 791, 3-(6-chloro-8-methylimidazo[1,2-a]pyrazin-2-yl)-7-[(1S,4S)-5-ethyl-2,5-diazabicyclo[2.2.1]hept-2-yl]-2H-chromen-2-one] | < 0.1 | 1000 to 3000 | *** (fold increase between >1.35 and ≤1.5)
170 to 173 | Cc1nccn2cc(-c3cc4ccc(N5CCN6CCC[C@@H]6C5)cc4oc3=O)cc12 [Compound 636, 7-[(8aR)-hexahydropyrrolo[1,2-a]pyrazin-2(1H)-yl]-3-(1-methylpyrrolo[1,2-a]pyrazin-7-yl)-2H-chromen-2-one] | < 0.1 | – | ** (fold increase between >1.2 and ≤1.35)
221 to 225 | Cc1cn2cc(-c3cc4ccc(N5CCN(C(C)C)CC5)cc4oc3=O)cc2cn1 [Compound 692, 3-(3-methylpyrrolo[1,2-a]pyrazin-7-yl)-7-[4-(propan-2-yl)piperazin-1-yl]-2H-chromen-2-one] | < 0.1 | < 300 | **** (fold increase between >1.5 and ≤1.65)
239 to 242 | Cc1cn2cc(-c3cc4ccc(N5CC[C@@H](N(C)C)C5)cc4oc3=O)nc2c(C)n1 [Compound 690, 7-[(3R)-3-(dimethylamino)pyrrolidin-1-yl]-3-(6,8-dimethylimidazo[1,2-a]pyrazin-2-yl)-2H-chromen-2-one] | 0.1 to 0.3 | 300 to 1000 | **** (fold increase between >1.5 and ≤1.65)
182 to 184 | CN(CCO)Cc1ccc2cc(-c3nc4ccccc4s3)c(=O)oc2c1 [Compound 79, 3-(1,3-benzothiazol-2-yl)-7-{[(2-hydroxyethyl)(methyl)amino]methyl}-2H-chromen-2-one] | 1 to 3 | – | *** (fold increase between >1.35 and ≤1.5)
196 to 215 | Cc1ccn2cc(-c3cc4ccc(N5CC6CCC5CN6)cc4oc3=O)nc2c1 (stereo not drawn) [Compound 597, 7-(2,5-diazabicyclo[2.2.2]oct-2-yl)-3-(7-methylimidazo[1,2-a]pyridin-2-yl)-2H-chromen-2-one] | < 0.1 | < 300 | **** (fold increase between >1.5 and ≤1.65)
229 to 232 | Cc1cn2cc(-c3cc4ccc(N5C[C@@H](C)N(C)[C@@H](C)C5)cc4oc3=O)nc2c(C)n1 [Compound 605, 3-(6,8-dimethylimidazo[1,2-a]pyrazin-2-yl)-7-[(3R,5S)-3,4,5-trimethylpiperazin-1-yl]-2H-chromen-2-one] | < 0.1 | < 300 | ***** (fold increase >1.65)

From patent USRE47689E1, “Compounds for treating spinal muscular atrophy” (PTC Therapeutics, Inc., priority 2011, dated 2019)
